# Experimental data taken from patent US7906105B1, “Zinc-activated contrast agents” (Northwestern University, priority 2006, dated 2011).
# Where “and” joins values, the source holds several entries; their conditions need not be identical. Equal values may be shown once. Entries after “also recorded” stand apart in the source; their conditions may differ.
# What was measured:
# [1] = Relaxivity measurements in the absence and presence of ZnCl2; format: physicochemical
# Protocol: (§1) Left: Relaxivity of Compound 1 in the presence of XCl2, where X=Zn, Ca, and Mg. All solutions were made in 100 mM KCl/100 mM HEPES at ph=7.4. Right: Relaxivity of Zn-1, 3:1 (Zn:Gd), following titration of EDTA.
# (§2) To test the binding ability of the acetate ligands to Zn(II), relaxivity measurements of 1 were measured in the absence and presence of ZnCl2. The relaxitivity of 1 in HEPES buffer without zinc was 2.34 mM^−1 s^−1, as is typical for small molecule contrast agents for which q=0 (8). […] As ZnCl2 was added, the relaxivity increased to 5.3 mM^−1 s^−1 indicative of a q=1 complex (See FIG. 3, left). Similar studies were conducted using MgCl2 and CaCl2 to test for selectivity of the ligand for zinc over other dications known to have higher cellular concentrations and which have similar binding affinities for carboxylic acids. […] A competitive binding assay gave a dissociation constant of 2.38×10^−4 M for the Gd(III)-Zn(II) complex.
# After 1 was left to equilibrate at 37° C. for 3 days with an excess of zinc, a relaxivity of 9.2 mM^−1 s^−1 was measured, indicating the species has a value of q=2. This measurement corresponds well to a structure proposed by embodiments of the present invention in which the pendant ligands have left the gadolinium for the zinc, leaving two open coordination sites for water to bind. […] Although an understanding of the mechanism is not necessary to practice the present invention and the present invention is not limited to any particular mechanism of action, in some embodiments, this is due to sequestration of Zn(II) by EDTA which leaves the carboxylic acids available to bind to Gd(III) and close the coordination sites (See FIG. 3, right). Adding excess EDTA had no effect on the relaxivity, providing that the Gd(III) ions are not sequestered by EDTA as expected given the high binding constant (˜10^16) for Gd-EDTA for which q=1.
# Proton relaxivity measurements on Compound 1 were also performed while titrating with increasing amounts of Zn(II) up to 1:1.4 (Gd: Zn) equivalents. […] The observed linear dependence also rules out the possibility of a 2:1 (Gd:Zn) complex formation.
# [2] = Relaxivity measurements with MgCl2; format: physicochemical; conditions: MgCl2, even at 3-fold excess of the dication
# Protocol: as §1, §2
# [3] = Relaxivity measurements with CaCl2; format: physicochemical; conditions: CaCl2, even at 3-fold excess of the dication
# Protocol: as §1, §2
# [4] = Competitive binding assay with fluorophore FluoZin-1; conditions: competitive assay against FluoZin-1; read-out: dissociation constant (Kd) of the Gd(III)-Zn(II) complex
# Protocol: as §2
# (§3) To evaluate the effectiveness of Compound 1 as an in vivo probe, the stability of Zn-Compound 1 was investigated. Using the commercially available fluorophore FluoZinTM-1 (Invitrogen), the binding constant of zinc can be determined by a competitive assay. Since the Zn(II)-binding regions of the dye and Compound 1 are identical, similar binding constants are to be expected. […] To confirm there was a measurable difference between zinc concentrations, T1 was measured on these same samples on a 14.1 T magnet and on a 1.4 T magnet.
# [5] = T1-weighted phantom MR images with Zn(II)
# Protocol: (§4) A. Compound 1 selectivity. Images of a 1 mM solution of Compound 1 in HEPES buffer. (A) HEPES buffer only; (B) Compound 1; (C) Compound 1 with 1 mM ZnCl2; (D) Compound 1 with 1 mM MgCl2; (E) Compound 1 with 1 mM CaCl2. B. Compound 1 sensitivity. Images of a 1 mM solution of Compound 1 in HEPES buffer with varying zinc concentrations. (A) 0 μM Zn; (B) 50 μM Zn; (C) 100 μM Zn; (D) 500 μM Zn; (E) 1 mM Zn. (TR=100.0 ms, TE=14.3 ms, FOV=2.5/2.0 cm, data matrix=256×256. TR=repetition time; TE=echo time; FOV=field of view).
# as §3
# [6] = T1-weighted phantom MR images with Mg(II); conditions: 4.7 T magnet; 1 mM Compound 1 in HEPES, 1 mM MgCl2
# Protocol: as §4, §3
# [7] = T1-weighted phantom MR images with Ca(II); conditions: 4.7 T magnet; 1 mM Compound 1 in HEPES, 1 mM CaCl2
# Protocol: as §4, §3
# [8] = Stability in 0.1 M phosphate buffer (relaxivity, ICP of supernatant); format: physicochemical
# Protocol: Compound 1 was monitored for 24 hours in a 0.1 M phosphate buffer to determine its stability in solution. Due to the low solubility of GdPO4 (Ksp=10^−22.26 mol^2/L^2) any dissociation of gadolinium from Compound 1 will precipitate, causing a subsequent decrease in relaxivity which was not seen. A more accurate measurement of the amount of gadolinium dissociation can be made from centrifuging the samples and collecting aliquots of the supernatant for evaluation of gadolinium concentration via ICP.
# NIH/3T3 cells [9] = experiment: Cell cytotoxicity, trypan blue staining; format: cell-based; design: cell viability: dose or concentration left out as unconfirmed
# Protocol: (§5) The cell doubling time for NIH/3T3 cells is around 16 hours and one can see over twice as many cells at 24 hours than at 8 hours as one would expect, implying greater than 99% cell viability. B. Compound 1 is taken up at a constant rate for up to 8 hours.
# (§6) Compound 1 was effectively taken up by NIH/3T3 cells at a constant rate for the first 8 hours of treatment. The maximal intracellular concentration of Compound 1 of approximately 10^−14 mol Gd/cell is achieved at 8 hours and maintained up to 24 hours (FIG. 6 B). NIH/3T3 cells were seeded at 10^5 cells per well in 24-well tissue culture plates with Dulbecco's modified Eagle's medium (DMEM) containing 10% bovine calf serum and incubated overnight in a 5% CO2 incubator at 37° C. The media was then changed and Compound 1 added at a concentration of 500 μM. After 2, 4, 8, and 24 hours, cells were washed three times with 1×PBS and exposed to 250 μL of 0.25% trypsin and harvested. Cells were diluted with an equal volume of 0.4% trypan blue and counted on a hemacytometer. For cellular uptake of Compound 1 into cells, cells were incubated with concentrated nitric acid at 70° C. for 3 hours. The dissolved cells were diluted into a 5 ml, solution with 3% nitric acid and 5 ppb of an indium internal standard. The concentration of Gd(III) was then determined using ICP-MS (induction coupled plasma mass spectrometry).
# NIH/3T3 cells [10] = experiment: Cellular uptake, Gd(III) by ICP-MS; format: cell-based; conditions: 500 μM
# Protocol: as §5, §6
# [11] = Testing of further agents for Zn(II) detection/activation (method not described)
# Excerpt: [drawing 1] wherein R═(CH2)n(n=1 or 2).
smiles,measurement,setting,value
Cc1cccc(OCCCN2CCN(CC(=O)[O-])CCN(CC(=O)[O-])CCN(CC(=O)[O-])CC2)c1N(CC(=O)[O-])CC(=O)[O-].[Gd+3] [Compound 1],relaxivity,[1]; HEPES buffer without zinc,2.34 mM⁻¹ s⁻¹
same,relaxivity,"[1]; HEPES buffer, ZnCl2 added",5.3 mM⁻¹ s⁻¹
same,relaxivity,[1]; equilibrated at 37° C. for 3 days with an excess of zinc,9.2 mM⁻¹ s⁻¹
same,increase in relaxivity,[1]; in the presence of Zn(II),> 100%
same,change in relaxivity values,[2],no significant change
same,change in relaxivity values,[3],no significant change
same,Kd,[4],238 µM and 240 µM
same,MR image intensity in the presence of Zn(II),"[5]; 4.7 T magnet, 1 mM Compound 1 in HEPES, 1 mM ZnCl2",increase in intensity
same,levels of Zn(II) that can be detected,[5]; in vitro MR images,hundreds of micromolar
same,visualization of difference between 100 μM and 500 μM zinc,"[5]; phantom images, 1 mM Compound 1, varying zinc concentrations",easily visualize the difference
same,MR image difference with Mg(II),[6],no discernible difference
same,MR image difference with Ca(II),[7],no discernible difference
same,decrease in relaxivity (Gd dissociation/precipitation),"[8]; 0.1 M phosphate buffer, 24 hours",not seen
same,change in [Gd] of supernatant (ICP),"[8]; 0.1 M phosphate buffer, time-points up to 24 hours",no significant change
same,dissociation constant of the gadolinium complex,[8]; suggested from phosphate buffer stability,on the order of that seen for Gd-DO3A
same,cell death,"NIH/3T3 cells [9]; 0.5 mM, up to 24 hours, trypan blue staining",no observable cell death
same,cell viability,NIH/3T3 cells [9]; 24 hours,greater than 99%
same,cell proliferation,NIH/3T3 cells [9]; incubation with Compound 1 up to 24 hours,Normal proliferation; also recorded: proliferated exponentially at the expected rate
same,uptake rate,NIH/3T3 cells [10]; first 8 hours of treatment,constant rate
same,maximal intracellular concentration,NIH/3T3 cells [10]; achieved at 8 hours and maintained up to 24 hours,approximately 10^−14 mol Gd/cell
Cc1cccc(OCCN2CCN(CC(=O)[O-])CCN(CC(=O)[O-])CCN(CC(=O)[O-])CC2)c1N(CC(=O)[O-])CC(=O)[O-].[Gd+3] [second agent],activation towards Zn(II),[11],little activation
